Molecular target: T1, Human A2B adenosine receptor (Homo sapiens, UniProt P29275)
T1 construct: expressed in transfected cells; host or cells: HEK-293 (HEK-A2B), membrane preparation
T1 sequence (P29275 1-332): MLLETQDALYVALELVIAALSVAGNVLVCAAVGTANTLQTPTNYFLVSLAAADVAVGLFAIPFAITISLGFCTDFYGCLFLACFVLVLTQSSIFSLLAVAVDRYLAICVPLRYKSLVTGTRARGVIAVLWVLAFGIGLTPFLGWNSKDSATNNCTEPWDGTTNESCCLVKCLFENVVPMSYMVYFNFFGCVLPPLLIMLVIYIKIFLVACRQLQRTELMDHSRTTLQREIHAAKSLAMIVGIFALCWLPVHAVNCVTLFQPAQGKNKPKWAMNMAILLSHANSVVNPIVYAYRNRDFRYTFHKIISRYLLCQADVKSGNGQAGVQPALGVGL
Assay: Radioligand binding for A2B adenosine receptor (3H-ZM241385 competition, HEK-A2B membranes)
Conditions: competition with 10 nM 3H-ZM241385, HEK-A2B cell membranes
Method: Radioligand Binding for A2B Adenosine Receptor.
Human A2B adenosine receptor cDNA was stably transfected into HEK-293 cells (referred to as HEK-A2B cells). Monolayer of HEK-A2B cells were washed with PBS once and harvested in a buffer containing 10 mM HEPES (pH 7.4), 10 mM EDTA and protease inhibitors. These cells were homogenized in polytron for 1 minute at setting 4 and centrifuged at 29000 g for 15 minutes at 4° C. The cell pellets were washed once with a buffer containing 10 mM HEPES (pH7.4), 1 mM EDTA and protease inhibitors, and were resuspended in the same buffer supplemented with 10% sucrose. Frozen aliquots were kept at −80° C. Competition assays were started by mixing 10 nM ^3H-ZM241385 (Tocris Cookson) with various concentrations of test compounds and 50 μg membrane proteins in TE buffer (50 mM Tris and 1 mM EDTA) supplemented with 1 Unit/mL adenosine deaminase. The assays were incubated for 90 minutes, stopped by filtration using Packard Harvester and washed four times with ice-cold TM buffer (10 mM Tris, 1 mM MgCl2, pH 7.4). Non specific binding was determined in the presence of 10 μM ZM241385. The affinities of compounds (i.e. Ki values) were calculated using GraphPad software.

Structure (SMILES): CCCn1c(=O)c2c(cc(-c3ccccn3)n2O)n(CCC)c1=O [1,3-dipropyl-8-(pyridin-2-yl)-7-hydroxy-1H-pyrrolo[3,2-d]pyrimidine-2,6-dione]
- Ki: 129 nM

Structure (SMILES): CCCn1c(=O)c2[nH]c(-c3cnn(Cc4ccccc4)c3)cc2n(CCC)c1=O [6-[1-benzylpyrazol-4-yl]-1,3-dipropyl-1,3-dihydropyrrolo[3,2-d]pyrimidine-2,4-dione]
- Ki: 26 nM

Structure (SMILES): CCCn1c(=O)c2c(cc(-c3cnn(Cc4cccc(C(F)(F)F)c4)c3)n2O)n(CCC)c1=O [8-(1-(3-(trifluoromethyl)benzyl)-1H-pyrazol-4-yl)-7-hydroxy-1,3-dipropyl-1H-pyrrolo[3,2-d]pyrimidine-2,6-dione]
- Ki: 9 nM

Structure (SMILES): CCCn1c(=O)c2[nH]c(-c3cnn(Cc4cccc(F)c4)c3)cc2n(CCC)c1=O [8-(1-(3-fluorobenzyl)-1H-pyrazol-4-yl)-1,3-dipropyl-1H-pyrrolo[3,2-d]pyrimidine-2,6-dione]
- Ki: 13 nM

Structure (SMILES): CCCn1c(=O)c2c(cc(-c3cnn(Cc4ccccc4)c3)n2O)n(CCC)c1=O [8-(1-benzyl-1H-pyrazol-4-yl)-7-hydroxy-1,3-dipropyl-1H-pyrrolo[3,2-d]pyrimidine-2,6-dione]
- Ki: 120 nM

Structure (SMILES): CCCn1c(=O)c2[nH]c(-c3cc[n+]([O-])cc3)cc2n(CCC)c1=O [8-(N-oxypyridin-4-yl)-1,3-dipropyl-1H-pyrrolo[3,2-d]pyrimidine-2,6-dione]
- Ki: 544 nM

Structure (SMILES): CCCn1c(=O)c2c(cc(-c3ccncc3)n2O)n(CCC)c1=O [8-(pyridin-4-yl)-7-hydroxy-1,3-dipropyl-1H-pyrrolo[3,2-d]pyrimidine-2,6-dione]
- Ki: 12 nM

Source: patent publication US7449473B2, “Substituted pyrrolo[3,2-d]pyrimidin-2,4-diones as A2b adenosine receptor antagonists” (CV Therapeutics, Inc., priority 2003, dated 2008)
